Reference: patent publication US20080206316A1, “Chromium-Fatty Acid Compounds and Methods of Making and Using Thereof” (priority 2005, published 2008)

Test system: diabetic mice
Test: Fasting blood glucose in diabetic mice fed test diets
Format: in vivo, Mice (C57BL/6J)
Experimental: Mice (C57BL/6J) weighing 20-grams were fed a high fat, high sucrose diet with no added chromium (No. D01030101, Research Diets Inc., New Brunswick, N.J.). After two weeks, they were injected intraperitoneally (i.p.) with streptozotocin (in phosphate-buffered saline, PBS) at a dose of 35 mg/kg body weight on 3 consecutive days. The combination of the high fat/high sucrose diet and streptozotocin treatment produced an impaired glucose tolerance evident 7 days following the initial streptozotocin injection (FIG. 5). Glucose tolerance was measured in mice fasted overnight and then injected i.p. with 1 g glucose/kg body weight (0.25 mL of a 10% glucose solution in PBS). Blood glucose was measured using a glucometer (OneTouch Ultra, LifeScan Inc., Milpitas, Calif.) on a drop of blood obtained from the saphenous vein just prior to (0 time) and at 10, 30, 60, 90 and 120 minutes following injection.
Animals were subsequently assigned to one of four different diet treatments, six animals per group. The diets were modified from the above high fat, high sucrose diet (Table 6). Each diet contained 1.5% fish oil concentrate (40:20 EPA/DHA ethyl ester, Ocean Nutrition Canada, Ltd., Mulgrave, NS). […] The animals were fed these diets for 4 weeks, after which time, fasting blood glucose and glucose tolerance was evaluated. […]

O=C([O-])c1ccccn1.O=C([O-])c1ccccn1.O=C([O-])c1ccccn1.[Cr+3] [Cr picolinate]
Fast blood glucose levels (diabetic mice (high fat/high sucrose diet + streptozotocin), diet with 1000 μg elemental Cr/kg diet for 4 weeks, fasted): 8.17 ± 1.8 mM
fasting blood glucose compared to the level in the control group (diabetic mice, dietary Cr for 4 weeks): reduction in fasting blood glucose
